Results as given in patent US8013156B2 (Exelixis, Inc., priority 2003, dated 2011).

Molecular target: Tie-2 (Homo sapiens, UniProt Q02763)
Test: Tie-2 tyrosine kinase activity assay (luciferase/luciferin ATP consumption with pEY substrate, or 33P-ATP incorporation)
Format: biochemical
Conditions: human enzyme Tie-2
Outline: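 Values are IC50 categories (A <50 nM to D ≥10,000 nM), with Ki obtainable by fitting rates to a tight-binding model. Assay formats: 33P-ATP phosphate transfer to adsorbed generic substrate counted by scintillation, or luciferase-detected ATP depletion using pEY.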

Tie-2, sequence (Q02763 23-1124): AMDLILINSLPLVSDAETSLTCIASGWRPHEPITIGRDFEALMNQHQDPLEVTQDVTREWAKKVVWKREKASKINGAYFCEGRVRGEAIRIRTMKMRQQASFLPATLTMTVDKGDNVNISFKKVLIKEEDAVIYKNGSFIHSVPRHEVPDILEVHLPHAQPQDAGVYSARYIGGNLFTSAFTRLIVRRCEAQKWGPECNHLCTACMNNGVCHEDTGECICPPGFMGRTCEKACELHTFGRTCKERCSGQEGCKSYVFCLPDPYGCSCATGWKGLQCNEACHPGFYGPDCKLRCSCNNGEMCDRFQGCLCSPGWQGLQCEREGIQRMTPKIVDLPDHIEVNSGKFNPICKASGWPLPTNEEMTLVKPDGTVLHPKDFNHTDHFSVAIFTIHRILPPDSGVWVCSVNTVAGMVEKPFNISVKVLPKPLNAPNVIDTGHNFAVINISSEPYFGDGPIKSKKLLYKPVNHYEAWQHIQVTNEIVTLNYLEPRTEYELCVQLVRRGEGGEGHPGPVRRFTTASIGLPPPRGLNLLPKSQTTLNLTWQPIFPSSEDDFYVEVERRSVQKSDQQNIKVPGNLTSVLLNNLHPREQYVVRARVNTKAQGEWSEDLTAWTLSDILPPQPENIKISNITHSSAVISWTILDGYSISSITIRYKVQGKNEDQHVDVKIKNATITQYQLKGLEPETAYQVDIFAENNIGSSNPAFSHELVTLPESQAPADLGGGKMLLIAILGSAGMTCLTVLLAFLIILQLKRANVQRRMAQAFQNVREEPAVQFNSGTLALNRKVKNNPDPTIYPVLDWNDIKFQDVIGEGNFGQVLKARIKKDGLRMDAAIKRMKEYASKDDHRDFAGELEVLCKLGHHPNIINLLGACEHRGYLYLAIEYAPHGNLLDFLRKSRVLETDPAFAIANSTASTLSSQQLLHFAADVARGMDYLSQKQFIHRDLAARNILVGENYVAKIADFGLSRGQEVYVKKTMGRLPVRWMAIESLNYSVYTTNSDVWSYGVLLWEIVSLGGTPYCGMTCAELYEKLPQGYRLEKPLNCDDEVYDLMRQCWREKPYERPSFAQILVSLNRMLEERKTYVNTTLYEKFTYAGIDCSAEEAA

Row | IC50 [µM] | SMILES
1 | < 0.05 | CCN1CCC(OC(=O)Nc2cc(COc3nsnc3N3CCN(C(=O)Nc4cc(C(F)(F)F)cc(C(F)(F)F)c4)CC3)ccn2)CC1 [Example 157, 1-ethylpiperidin-4-yl {4-[({4-[4-({[3,5-bis(trifluoromethyl)phenyl]amino}carbonyl)piperazin-1-yl]-1,2,5-thiadiazol-3-yl}oxy)methyl]pyridin-2-yl}carbamate]
2 | 0.05 to 1 | CCc1cccc(NC(=O)N2C(C)CN(c3nccnc3OCc3ccncc3)CC2C)c1 (centres unmarked) [Example 94, N-(3-ethylphenyl)-2,6-dimethyl-4-{3-[(pyridin-4-ylmethyl)oxy]pyrazin-2-yl}piperazine-1-carboxamide]
3 | 1 to 10 | CC(C)[C@H]1CC[C@H](C)C[C@@H]1OCC(=O)N1CCN(c2nsnc2OCc2ccncc2)CC1 [Example 24]
4 | 0.05 to 1 | O=C(Nc1cc(C(F)(F)F)cc(C(F)(F)F)c1)N1CCN(c2nsnc2OCc2ccncn2)CC1 [Example 138, N-[3,5-bis(trifluoromethyl)phenyl]-4-{4-[(pyrimidin-4-ylmethyl)oxy]-1,2,5-thiadiazol-3-yl}piperazine-1-carboxamide]
5 | 1 to 10 | CNC(=O)N1CCN(c2ncccc2OCc2ccnc(NC(=O)CN3CCN(C)CC3)c2)CC1 [Example 191, N-methyl-4-(3-{[(2-{[(4-methylpiperazin-1-yl)acetyl]amino}pyridin-4-yl)methyl]oxy}pyridin-2-yl)piperazine-1-carboxamide]
6 | < 0.05 | CCc1cccc(NC(=O)N2CCN(c3ncc(Br)cc3OCc3ccnc(N)n3)CC2)c1 [Example 190, 4-(3-{[(2-aminopyrimidin-4-yl)methyl]oxy}-5-bromopyridin-2-yl)-N-(3-ethylphenyl)piperazine-1-carboxamide]
7 | 0.05 to 1 | O=C(Nc1cc(C(F)(F)F)cc(C(F)(F)F)c1)N1CCN(c2nsnc2OCc2ccnc(NCc3ccccc3)n2)CC1 [Example 117, N-[3,5-bis(trifluoromethyl)phenyl]-4-{4-[({2-[(phenylmethyl)amino]pyrimidin-4-yl}methyl)oxy]-1,2,5-thiadiazol-3-yl}piperazine-1-carboxamide]
8 | < 0.05 | CCc1cccc(NC(=O)Nc2cc(COc3cccnc3N3CCN(C(=O)Nc4cccc(CC)c4)CC3)ccn2)c1 [Example 170, N-(3-ethylphenyl)-4-[3-({[2-({[(3-ethylphenyl)amino]carbonyl}amino)pyridin-4-yl]methyl}oxy)pyridin-2-yl]piperazine-1-carboxamide]
9 | < 0.05 | CN1CCN(CC(=O)Nc2cc(COc3cccnc3N3CCN(C(=O)Nc4cc(C(F)(F)F)cc(Cl)c4F)CC3)ccn2)CC1 [Example 243, N-[3-chloro-2-fluoro-5-(trifluoromethyl)phenyl]-4-(3-{[(2-{[(4-methylpiperazin-1-yl)acetyl]amino}pyridin-4-yl)methyl]oxy}pyridin-2-yl)piperazine-1-carboxamide]
10 | 1 to 10 | Nc1nccc(COc2nsnc2N2CCN(C(=O)Nc3cc(Cl)ccc3F)CC2)n1 [Example 257, 4-(4-{[(2-aminopyrimidin-4-yl)methyl]oxy}-1,2,5-thiadiazol-3-yl)-N-(5-chloro-2-fluorophenyl)piperazine-1-carboxamide]
11 | < 0.05 | CN(C(=O)N1CCN(c2ncccc2OCc2ccnc(N)n2)CC1)c1cc(C(F)(F)F)cc(C(F)(F)F)c1 [Example 250, 4-(3-{[(2-aminopyrimidin-4-yl)methyl]oxy}pyridin-2-yl)-N-[3,5-bis(trifluoromethyl)phenyl]-N-methylpiperazine-1-carboxamide]
12 | < 0.05 | CCNc1nccc(COc2nsnc2N2CCN(C(=O)Nc3cc(C(F)(F)F)cc(C(F)(F)F)c3)CC2)n1 [Example 121, N-[3,5-bis(trifluoromethyl)phenyl]-4-[4-({[2-(ethylamino)pyrimidin-4-yl]methyl}oxy)-1,2,5-thiadiazol-3-yl]piperazine-1-carboxamide]
13 | 1 to 10 | CC(=O)c1cccc(NC(=O)N2CCN(c3nsnc3OCc3ccnc(N)n3)CC2)c1 [Example 267, N-(3-acetylphenyl)-4-(4-{[(2-aminopyrimidin-4-yl)methyl]oxy}-1,2,5-thiadiazol-3-yl)piperazine-1-carboxamide]
14 | 0.05 to 1 | CC1CN(c2nsnc2OCc2ccncc2)CC(C)N1C(=O)Nc1cc(C(F)(F)F)cc(C(F)(F)F)c1 (centres unmarked) [Example 68, N-[3,5-bis(trifluoromethyl)phenyl]-2,6-dimethyl-4-{4-[(pyridin-4-ylmethyl)oxy]-1,2,5-thiadiazol-3-yl}piperazine-1-carboxamide]
15 | 0.05 to 1 | CCCNc1nccc(COc2nsnc2N2CCN(C(=O)Nc3cc(C(F)(F)F)cc(C(F)(F)F)c3)CC2)n1 [Example 122, N-[3,5-bis(trifluoromethyl)phenyl]-4-[4-({[2-(propylamino)pyrimidin-4-yl]methyl}oxy)-1,2,5-thiadiazol-3-yl]piperazine-1-carboxamide]
16 | 1 to 10 | O=C(Nc1cc(C(F)(F)F)cc(C(F)(F)F)c1)N1CCN(c2nsnc2OCc2ccnc(Br)c2)CC1 [Example 87, N-[3,5-bis(trifluoromethyl)phenyl]-4-(4-{[(2-bromopyridin-4-yl)methyl]oxy}-1,2,5-thiadiazol-3-yl)piperazine-1-carboxamide]
17 | 1 to 10 | COc1ccc(OC)c(NC(=O)N2CCN(c3nsnc3OCc3ccnc(N)n3)CC2)c1 [Example 254, 4-(4-{[(2-aminopyrimidin-4-yl)methyl]oxy}-1,2,5-thiadiazol-3-yl)-N-[2,5-bis(methyloxy)phenyl]piperazine-1-carboxamide]
18 | < 0.05 | CCc1cccc(NC(=O)N2CCN(c3ncccc3OCc3ccnc(NC(=O)OCCN4CCN(C)CC4)c3)CC2)c1 [Example 182, 2-(4-methylpiperazin-1-yl)ethyl [4-({[2-(4-{[(3-ethylphenyl)amino]carbonyl}piperazin-1-yl)pyridin-3-yl]oxy}methyl)pyridin-2-yl]carbamate]
19 | < 0.05 | Nc1nccc(COc2ccccc2N2CCN(C(=O)Nc3cc(Cl)cc(Cl)c3)CC2)n1 [Example 271, 4-(2-{[(2-aminopyrimidin-4-yl)methyl]oxy}phenyl)-N-(3,5-dichlorophenyl)piperazine-1-carboxamide]
20 | 0.05 to 1 | O=C(CN1CCCCC1)Nc1cc(COc2nsnc2N2CCN(C(=O)Nc3cc(C(F)(F)F)cc(C(F)(F)F)c3)CC2)ccn1 [Example 152, N-[3,5-bis(trifluoromethyl)phenyl]-4-{4-[({2-[(piperidin-1-ylacetyl)amino]pyridin-4-yl}methyl)oxy]-1,2,5-thiadiazol-3-yl}piperazine-1-carboxamide]
21 | 1 to 10 | Nc1nccc(COc2cccnc2N2CCN(C(=O)Nc3ccc(F)cc3)CC2)n1 [Example 187, 4-(3-{[(2-aminopyrimidin-4-yl)methyl]oxy}pyridin-2-yl)-N-(4-fluorophenyl)piperazine-1-carboxamide]
22 | < 0.05 | COc1cc2nccc(Oc3nsnc3N3CCN(C(=O)Nc4cc(C(F)(F)F)cc(C(F)(F)F)c4)CC3)c2cc1OC [Example 276, 4-(4-{[6,7-bis(methyloxy)quinolin-4-yl]oxy}-1,2,5-thiadiazol-3-yl)-N-[3,5-bis(trifluoromethyl)phenyl]piperazine-1-carboxamide]
23 | < 0.05 | CN1CCN(CC(=O)Nc2cc(COc3cccnc3N3CCN(C(=O)Nc4cccc(C(F)(F)F)c4)CC3)ccn2)CC1 [Example 214, 4-(3-{[(2-{[(4-methylpiperazin-1-yl)acetyl]amino}pyridin-4-yl)methyl]oxy}pyridin-2-yl)-N-[3-(trifluoromethyl)phenyl]piperazine-1-carboxamide]
